For 11 compounds, IC50 results are on record in ChEMBL document CHEMBL3797199, “Anti-gout nor-oleanane triterpenoids from the leaves of Stauntonia brachyanthera” (Bioorg Med Chem Lett, 2016).

The target in the experiment is Xanthine dehydrogenase/oxidase (Bos taurus, UniProt P80457). The experiment is described as follows: Inhibition of bovine milk xanthine oxidase using xanthine as substrate preincubated for 15 mins followed by substrate addition by spectrophotometric method.

As usually defined, the IC50 is the concentration that gives 50% inhibition. Read a low IC50 as higher potency.

Bounds are passed on as bounds.

Chain of Xanthine dehydrogenase/oxidase (P80457 whole entry): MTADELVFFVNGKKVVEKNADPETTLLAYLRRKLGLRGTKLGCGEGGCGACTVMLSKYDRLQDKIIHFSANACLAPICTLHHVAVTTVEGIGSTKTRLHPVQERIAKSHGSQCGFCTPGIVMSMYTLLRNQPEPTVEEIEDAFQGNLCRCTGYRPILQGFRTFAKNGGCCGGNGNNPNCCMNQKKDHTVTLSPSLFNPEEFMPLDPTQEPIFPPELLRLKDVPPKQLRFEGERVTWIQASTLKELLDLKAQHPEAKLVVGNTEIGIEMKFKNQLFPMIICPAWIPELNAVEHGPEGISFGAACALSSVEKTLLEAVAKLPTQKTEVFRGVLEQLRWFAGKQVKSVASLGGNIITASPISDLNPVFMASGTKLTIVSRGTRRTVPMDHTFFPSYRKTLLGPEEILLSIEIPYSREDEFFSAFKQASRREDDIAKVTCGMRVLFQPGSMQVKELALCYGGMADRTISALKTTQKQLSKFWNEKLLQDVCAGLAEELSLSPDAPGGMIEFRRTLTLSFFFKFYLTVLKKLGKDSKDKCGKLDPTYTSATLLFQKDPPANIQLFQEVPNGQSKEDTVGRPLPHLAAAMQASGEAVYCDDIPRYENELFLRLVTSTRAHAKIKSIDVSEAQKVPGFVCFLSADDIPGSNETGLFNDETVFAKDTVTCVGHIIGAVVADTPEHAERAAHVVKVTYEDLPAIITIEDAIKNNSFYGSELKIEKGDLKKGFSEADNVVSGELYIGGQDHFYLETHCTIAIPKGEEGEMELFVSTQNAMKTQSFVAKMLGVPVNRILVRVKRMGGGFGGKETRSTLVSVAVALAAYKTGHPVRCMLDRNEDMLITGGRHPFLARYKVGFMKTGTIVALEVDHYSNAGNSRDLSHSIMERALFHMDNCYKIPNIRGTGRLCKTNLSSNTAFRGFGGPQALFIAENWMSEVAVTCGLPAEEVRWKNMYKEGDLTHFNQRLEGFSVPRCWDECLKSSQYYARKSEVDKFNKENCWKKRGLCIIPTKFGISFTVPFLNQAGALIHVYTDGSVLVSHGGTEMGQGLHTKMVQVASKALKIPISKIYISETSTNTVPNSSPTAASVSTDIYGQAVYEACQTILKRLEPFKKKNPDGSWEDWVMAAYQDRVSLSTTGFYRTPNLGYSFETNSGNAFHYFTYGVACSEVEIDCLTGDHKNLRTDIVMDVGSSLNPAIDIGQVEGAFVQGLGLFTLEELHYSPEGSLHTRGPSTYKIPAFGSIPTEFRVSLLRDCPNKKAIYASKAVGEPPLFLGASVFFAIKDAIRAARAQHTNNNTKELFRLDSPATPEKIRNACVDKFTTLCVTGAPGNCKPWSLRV

`C[C@]12CC[C@H](O)[C@](C)(CO[C@@H]3O[C@H](CO)[C@@H](O)[C@H](O)[C@H]3O)[C@@H]1CC[C@]1(C)[C@@H]2CC=C2[C@@H]3C[C@](C)(C(=O)O)[C@@H](O)C[C@]3(C(=O)O)CC[C@]21C` gave an IC50 of 49.2 µM. On to `C=C1CC[C@]2(C(=O)O)CC[C@]3(C)C(=CC[C@@H]4[C@@]5(C)CC[C@H](O[C@@H]6OC[C@H](O)[C@H](O)[C@H]6O[C@@H]6O[C@@H](C)[C@H](O)[C@@H](O)[C@H]6O)C(C)(C)[C@@H]5CC[C@]43C)[C@@H]2C1`, for which the IC50 turned out to be 18.5 µM. Regarding `C=C1CC[C@]2(C(=O)O[C@@H]3O[C@H](CO[C@@H]4O[C@H](CO)[C@@H](O)[C@H](O)[C@H]4O)[C@@H](O)[C@H](O)[C@H]3O)CC[C@]3(C)C(=CC[C@@H]4[C@@]5(C)CC[C@H](O[C@@H]6OC[C@H](O)[C@H](O)[C@H]6O)[C@@](C)(CO)[C@@H]5CC[C@]43C)[C@@H]2C1`, the IC50 was 79.6 µM.

Turning to `C[C@]12C[C@@H](O)[C@H](O)[C@](C)(CO)[C@@H]1CC[C@]1(C)[C@@H]2CC=C2[C@@H]3C[C@](C)(C(=O)O)[C@@H](O)C[C@]3(C(=O)O)CC[C@]21C`, the IC50 was more than 100 µM.

The compound `C=C1CC[C@]2(C(=O)O[C@@H]3O[C@H](CO[C@@H]4O[C@H](CO)[C@@H](O[C@@H]5O[C@@H](C)[C@H](O)[C@@H](O)[C@H]5O)[C@H](O)[C@H]4O)[C@@H](O)[C@H](O)[C@H]3O)CC[C@]3(C)C(=CC[C@@H]4[C@@]5(C)CC[C@H](O[C@@H]6OC[C@H](O)[C@H](O[C@@H]7O[C@H](C(=O)O)[C@@H](O)[C@H](O)[C@H]7O)[C@H]6O)[C@@](C)(CO)[C@@H]5CC[C@]43C)[C@@H]2C1` came in with an IC50 of 91.3 µM.

Consider `C=C1CC[C@]2(C(=O)O[C@@H]3O[C@H](CO[C@@H]4O[C@H](CO)[C@@H](O)[C@H](O)[C@H]4O)[C@@H](O)[C@H](O)[C@H]3O)CC[C@]3(C)C(=CC[C@@H]4[C@@]5(C)CC[C@H](O[C@@H]6OC[C@H](O)[C@H](O[C@@H]7OC[C@H](O)[C@H](O)[C@H]7O)[C@H]6O)C(C)(C)[C@@H]5CC[C@]43C)[C@@H]2C1`, for which the IC50 was more than 100 µM.

In the case of `C=C1CC[C@@]2(C(=O)O[C@@H]3O[C@H](CO[C@@H]4O[C@H](CO)[C@@H](O)[C@H](O)[C@H]4O)[C@@H](O)[C@H](O)[C@H]3O)CC[C@@]3(C)C(=CC[C@H]4[C@]5(C)CC[C@@H](O[C@@H]6OC[C@H](O)[C@H](O)[C@H]6O[C@@H]6OC[C@H](O)[C@H](O[C@H]7OC[C@@H](O)[C@@H](O)[C@@H]7O)[C@H]6O)C(C)(C)[C@H]5CC[C@@]43C)[C@H]2C1`, the IC50 was more than 100 µM. Consider `C[C@@H]1O[C@@H](O[C@@H]2[C@@H](O[C@H]3CC[C@]4(C)[C@H]5CC=C6[C@@H]7C[C@H](CO)CC[C@]7(C(=O)O[C@H]7O[C@@H](CO[C@@H]8O[C@H](CO)[C@@H](O[C@@H]9O[C@@H](C)[C@H](O)[C@@H](O)[C@H]9O)[C@H](O)[C@H]8O)[C@H](O)[C@@H](O)[C@@H]7O)CC[C@@]6(C)[C@]5(C)CC[C@H]4C3(C)C)OC[C@@H](O)[C@H]2O)[C@H](O)[C@H](O)[C@H]1O`, for which the IC50 is more than 100 µM. The compound `C=C1CC[C@]2(C(=O)O[C@H]3O[C@@H](CO[C@@H]4O[C@H](CO)[C@@H](O[C@@H]5O[C@@H](C)[C@H](O)[C@@H](O)[C@H]5O)[C@H](O)[C@H]4O)[C@H](O)[C@@H](O)[C@@H]3O)CC[C@]3(C)C(=CC[C@@H]4[C@@]5(C)CC[C@H](O[C@H]6OC[C@@H](O)[C@@H](O[C@H]7OC[C@@H](O)[C@@H](O)[C@@H]7O[C@@H]7OC[C@@H](O)[C@H](O[C@H]8OC[C@@H](O)[C@@H](O)[C@@H]8O)[C@H]7O)[C@@H]6O)C(C)(C)[C@@H]5CC[C@]43C)[C@@H]2C1` returned an IC50 of more than 100 µM. The compound `C[C@H]1O[C@@H](O[C@H]2[C@H](OC[C@]3(C)[C@@H]4CC[C@]5(C)[C@H](CC=C6[C@@H]7C[C@](C)(O)[C@@H](O)C[C@]7(C(=O)O)CC[C@]65C)[C@@]4(C)CC[C@@H]3O)O[C@H](CO)[C@@H](O)[C@@H]2O)[C@H](O)[C@@H](O)[C@@H]1O` showed an IC50 of 0.2 µM. For the compound `C=C1CC[C@]2(C(=O)O[C@H]3O[C@@H](CO[C@H]4O[C@@H](CO)[C@H](O)[C@@H](O)[C@@H]4O)[C@H](O)[C@@H](O)[C@@H]3O)CC[C@]3(C)C(=CC[C@@H]4[C@@]5(C)CC[C@H](O[C@H]6OC[C@@H](O)[C@@H](O)[C@@H]6O[C@@H]6O[C@@H](C)[C@H](O)[C@@H](O[C@H]7OC[C@@H](O)[C@@H](O)[C@@H]7O)[C@H]6O)C(C)(C)[C@@H]5CC[C@]43C)[C@@H]2C1`, the IC50 is more than 100 µM.
